Laboratory results published in ChEMBL document CHEMBL4229326, “Modulators of 14-3-3 Protein-Protein Interactions” (J Med Chem, 2018).

Key:
[1] = biological target: T1, 14-3-3 protein zeta/delta (Homo sapiens, UniProt P63104); assay: Binding affinity to recombinant human His-tagged 14-3-3zeta expressed in Escherichia coli K12 by ITC method
T1 sequence (P63104 whole entry): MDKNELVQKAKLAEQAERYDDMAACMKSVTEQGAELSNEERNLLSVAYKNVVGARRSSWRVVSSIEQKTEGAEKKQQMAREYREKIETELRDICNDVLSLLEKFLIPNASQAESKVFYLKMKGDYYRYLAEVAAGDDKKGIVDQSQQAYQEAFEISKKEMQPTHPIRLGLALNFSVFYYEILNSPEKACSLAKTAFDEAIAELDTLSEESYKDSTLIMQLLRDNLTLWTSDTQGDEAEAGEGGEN

[2] = biological target: T1, 14-3-3 protein zeta/delta; assay: Binding affinity to human full length 14-3-3zeta by fluorescence polarization assay
14-3-3 protein sigma = biological target: T2, 14-3-3 protein sigma (Homo sapiens, UniProt P31947); assay: Inhibition of TMR-GG-RLSHpSSLPG-NH2 binding to recombinant human GST-tagged 14-3-3-sigma preincubated for 30 mins followed by TMR-GG-RLSHpSSLPG-NH2 addition and measured after 60 mins by fluorescence polarization assay
T2 sequence (P31947 whole entry): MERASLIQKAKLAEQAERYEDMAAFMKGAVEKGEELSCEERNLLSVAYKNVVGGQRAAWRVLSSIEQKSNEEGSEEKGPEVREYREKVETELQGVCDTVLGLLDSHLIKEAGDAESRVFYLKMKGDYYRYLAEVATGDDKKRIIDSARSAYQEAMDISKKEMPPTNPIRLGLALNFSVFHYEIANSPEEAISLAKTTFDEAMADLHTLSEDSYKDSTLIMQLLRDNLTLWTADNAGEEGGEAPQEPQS

DG-75 = assay: Growth inhibition of human DG75 cells after 48 hrs by trypan blue exclusion method; format: functional, cell-based; details: DG-75, 48 h
14-3-3 protein gamma = biological target: T3, 14-3-3 protein gamma (Homo sapiens, UniProt P61981); assay: Binding affinity to GST-tagged 14-3-3-gamma (unknown origin) expressed in Escherichia coli BL21(DE3) assessed as inhibition of interaction with PRAS40 in African green monkey COS7 cells preincubated with protein followed by cell addition by ELISA
T3 sequence (P61981 whole entry): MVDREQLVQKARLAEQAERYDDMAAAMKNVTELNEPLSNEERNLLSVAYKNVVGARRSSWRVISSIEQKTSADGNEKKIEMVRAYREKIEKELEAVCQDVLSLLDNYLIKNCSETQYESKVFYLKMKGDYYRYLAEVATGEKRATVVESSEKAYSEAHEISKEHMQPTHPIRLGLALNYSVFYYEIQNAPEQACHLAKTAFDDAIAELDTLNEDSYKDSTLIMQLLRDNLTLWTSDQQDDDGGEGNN

[3] = biological target: Potassium channel subfamily K member 9 (Homo sapiens) (UniProt Q9NPC2); assay: Stabilization of human HA-tagged TASK-3 interaction with 14-3-3 in Xenopus laevis oocytes assessed as increase of TASK-3 expression in plasma membrane at 10 uM by antibody-based luminometric assay relative to control; format: cell-based
Chain of Potassium channel subfamily K member 9 (Homo sapiens) (Q9NPC2 whole entry): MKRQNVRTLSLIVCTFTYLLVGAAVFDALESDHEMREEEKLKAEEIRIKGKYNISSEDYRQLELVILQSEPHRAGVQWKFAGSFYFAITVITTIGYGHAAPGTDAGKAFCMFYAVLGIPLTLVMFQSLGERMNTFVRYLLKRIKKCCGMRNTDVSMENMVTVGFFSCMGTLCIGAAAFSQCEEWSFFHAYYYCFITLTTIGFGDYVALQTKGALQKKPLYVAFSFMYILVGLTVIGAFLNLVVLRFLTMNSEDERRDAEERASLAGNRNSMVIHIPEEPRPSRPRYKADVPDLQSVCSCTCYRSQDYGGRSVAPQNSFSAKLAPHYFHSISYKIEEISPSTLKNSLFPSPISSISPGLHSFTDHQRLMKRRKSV

SMILES: COC[C@H]1CC[C@@H]2/C1=C\[C@]1(C)C(=C([C@H](C)COC(C)=O)CC1OCc1ccccc1/C=N/OC[C@@H](NC(=O)[C@H](CC(=O)O)NC(=O)[C@H](Cc1ccc(O)cc1)NC(=O)[C@H](CO)NC(=O)[C@H](CCC(N)=O)NC(=O)CNS(=O)(=O)c1cccc3c(N(C)C)cccc13)C(C)C)[C@@H](O)[C@H](O)[C@@H]2C (stereo not given in full)
- Kd [1]: 0.37 µM

SMILES: CC(C)C[C@H](NC(=O)[C@H](CC(=O)O)NC(=O)[C@]1(C)CCCCCCCCCCCC[C@](C)(NC(=O)CNC(=O)[C@@H](N)CCC(N)=O)C(=O)N[C@@H](CC(C)C)C(=O)N[C@@H](CC(=O)O)C(=O)N[C@@H](C)C(=O)N1)C(=O)N[C@@H](C)C(=O)N[C@@H](CO)C(=O)O
- Kd [2]: 0.041 µM

SMILES: CC(C)=CC(=O)N[C@@H](COP(=O)(O)O)C(=O)NCc1ccc2c(c1)OCO2
- IC50 (14-3-3 protein sigma): 2.6 to 3.6 µM

SMILES: CN(CCCCCl)P(=O)(OCc1ccc([N+](=O)[O-])o1)C(F)(F)C[C@H](NC(=O)CNC(=O)c1ccc(N)cc1)C(=O)NCCc1ccc(O)cc1 (stereo not given in full)
- IC50 (DG-75): 5 µM

SMILES: Cc1nc(/N=N/c2ccc(C(=O)O)cc2)c(COP(=O)(O)O)c(C=O)c1O
- IC50 (14-3-3 protein gamma): 16.4 µM

SMILES: O=C(CNC(=O)c1ccc(CCl)cc1)N[C@@H](COP(=O)(O)O)C(=O)NCc1ccc2c(c1)OCO2
- IC50 (14-3-3 protein sigma): 2.6 to 3.6 µM

SMILES: CC(C)=CC(=O)N[C@@H](COP(=O)(O)O)C(=O)NCCc1ccc(O)cc1
- IC50 (14-3-3 protein sigma): 2.6 to 3.6 µM

SMILES: [N-]=[N+]=Nc1ccc(C(=O)NCC(=O)N[C@@H](COP(=O)(O)O)C(=O)NCCc2ccc(O)cc2)cc1
- IC50 (14-3-3 protein sigma): 2.6 to 3.6 µM

SMILES: COC[C@H]1CC[C@@H]2/C1=C\[C@]1(C)C(=C(C(C)C)[C@@H]3CCO[C@@H]31)[C@@H](O[C@H]1C[C@@H]3COC(C)(C)O[C@H]3[C@H](O)[C@H]1O)[C@H](O)[C@@H]2C
- Activity [3]: 45%

SMILES: O=C(CNC(=O)c1ccc(CCl)cc1)N[C@@H](COP(=O)(O)O)C(=O)NCCc1ccc(O)cc1
- IC50 (14-3-3 protein sigma): 2.6 to 3.6 µM
